Where two headings read alike, the source gives them in different places. Starred links: 1 amine or outer side, 2 acyl side, 3 side chain; linkers in the order of their positions; H or OH if unused. Non-standard residues stand in square brackets, D forms with d. Residues, ends and D or L forms follow the SMILES beside them. No end group written: not given here. *: point of attachment. X1 = O=C([C@H](Cc1ccc2ccc3cccc4ccc1c2c34)N[*:1])[*:2]; Phe(4-Cl) = N[C@@H](Cc1ccc(Cl)cc1)C(=O)O; Adipoyl = O=C(CCCCC(=O)[*:2])[*:1]; Lys(Me2) = CN(C)CCCC[C@H](N)C(=O)O; Cha = N[C@@H](CC1CCCCC1)C(=O)O; Dap = NC[C@H](N)C(=O)O; Hexanoyl = CCCCCC(=O)*
Legend:
APJ [1] = biological target: T1, APJ (Homo sapiens, UniProt P35414); test: Receptor binding assay-2 (compound in Reference Example 2 used)
T1 construct: expressed in transfected cells; host or cells: CHO (CHO-A10; clone 6 for the cAMP assay)
T1 sequence (P35414 1-380): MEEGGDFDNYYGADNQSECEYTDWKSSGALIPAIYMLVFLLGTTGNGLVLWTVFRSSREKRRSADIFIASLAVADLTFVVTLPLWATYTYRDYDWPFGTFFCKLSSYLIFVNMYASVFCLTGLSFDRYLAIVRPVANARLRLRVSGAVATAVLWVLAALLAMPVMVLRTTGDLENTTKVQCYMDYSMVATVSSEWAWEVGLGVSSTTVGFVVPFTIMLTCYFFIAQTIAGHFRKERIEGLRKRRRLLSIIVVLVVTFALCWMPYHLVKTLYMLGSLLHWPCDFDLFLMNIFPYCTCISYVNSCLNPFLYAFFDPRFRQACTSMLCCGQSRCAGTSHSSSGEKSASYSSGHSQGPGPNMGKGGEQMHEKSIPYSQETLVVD
Method: (§1) This product was mixed with an equal volume of an assay buffer (50 mM Tris-HCl/pH 7.5, 5 mM EDTA, 0.5 mM PMSF, 20 μg/ml leupeptin, 0.1 μg/ml pepstatin A, 4 μg/ml E-64 (Peptide Research Laboratory, Co.), 0.1% bovine serum albumin) and stored at −30° C. before use.
(§2) CHO-A10 cells were cultured, recovered with PBS containing 5 mM EDTA from a culture vessel, and suspended in the above-mentioned assay buffer not containing bovine serum albumin. The cells were homogenized 3 times at 12,000 rpm for 15 seconds by a Polytron homogenizer (manufactured by Kinematica Inc.) and then centrifuged (1000×g, 4° C., 10 minutes), and the supernatant was recovered. The precipitates were subjected again to the same procedure as above, and the respective supernatants were combined and centrifuged at 100,000×g, 4° C. for 1 hour, to recover precipitates (membrane fraction). The membrane fraction was suspended again in a small amount of the buffer, homogenized with a Teflon homogenizer and stored at −80° C. before use.
(§3) Binding assay was carried out under the following conditions. […] Measurement of non-specific binding was carried out using a well containing 1 μM unlabeled compound in place of the test sample. After the incubation was finished, a cell harvester (Packard) adapted to 96 wells and a filter unit (GF/C, Packard) were used for separation thereby capturing the membrane fraction on the filter. After the filter was sufficiently dried, Microcinti 0 (Packard) was added thereto, and using Top Count (Packard), the amount of the labeled material captured together with the membrane fraction on the filter was measured.

APJ [2] = biological target: T1, APJ; test: Inhibitory activity on forskolin-stimulated cAMP production in CHO-A10 clone 6 cells; type: cell-based
Method: Measurement of an Inhibitory Activity on Forskolin-Stimulated cAMP Production
Hanks' balanced salt solution (HBSS) containing 0.2 mM 3-isobutyl-1-methylxanthine (IBMX) and 0.05% bovine serum albumin was prepared as an assay buffer, and each well was washed twice with 500 μl assay buffer and pre-incubated at 37° C. for 30 minutes. Further, each well was washed once with 500 μl assay buffer, and a sample dissolved in the assay buffer containing 1 μM forskolin was added at a volume of 500 μl/well and incubated at 37° C. for 30 minutes. Wells incubated with the assay buffer not containing forskolin were prepared in the same manner in order to determine the basal level of cellular cAMP production, while wells incubated with the assay buffer containing forskolin were also prepared in order to determine the maximum level of cAMP production stimulated with forskolin. After incubation was finished, each well was washed once with 500 μl assay buffer, and 500 μl lysis buffer 1B attached to a cAMP EIA system from Amersham was added to each well, to extract cAMP. According to the protocol of the kit, 100 μl of each extract was used to determine the level of cAMP. For the inhibitory activity of the sample on cAMP production, the difference (inhibited cAMP production) between the maximum level and the level of cAMP in the sample-containing wells was determined, and the inhibitory activity was expressed as percentage relative to the increased level of cAMP production stimulated with forskolin (that is, the difference between the maximum level and basal level), and from this dose-reaction curve, the EC50 was determined.

APJ [3] = biological target: T1, APJ; test: Receptor binding assay-1 (125I-labeled compound in Reference Example 1, CHO-A10 membrane fraction); details: 125I-labeled compound in Reference Example 1 at 100 pM, room temperature […]
Method: as §1, §2, §3

[4] = compound in Reference Example 2 used as ligand, read-out: IC50

Compound | IC50 (APJ [1]; [4]) [pM] | EC50 (APJ [2]; read-out: EC50) [pM] | IC50 (APJ [3]) [pM] | IC50 (APJ [1]) [pM] | EC50 (APJ [2]) [pM]
CC(C)C[C@H](NC(=O)[C@H](CCCNC(=N)N)NC(=O)[C@@H]1CCCN1C(=O)[C@H](CCCNC(=N)N)NC(=O)[C@H](CCC(N)=O)NC(=O)[C@H](CCCNC(=N)N)NC(=O)[C@@H](N)CCCNC(=N)N)C(=O)N[C@@H](CO)C(=O)N[C@@H](Cc1c[nH]cn1)C(=O)N[C@@H](CCCCN)C(=O)NCC(=O)N1CCC[C@H]1C(=O)N[C@@H](CC1CCCCC1)C(=O)N1CCC[C@H]1C(=O)N[C@@H](Cc1ccc(Cl)cc1)C(=O)O [Compound in Ex. 2] | 330 | 530 | 470 | – | –
CSCC[C@H](NC(=O)[C@@H]1CCCN1C(=O)CNC(=O)[C@H](CCCNC(=N)N)NC(=O)[C@H](C)NC(=O)[C@H](CO)NC(=O)[C@H](CC(C)C)NC(=O)[C@H](CCCNC(=N)N)NC(=O)[C@@H]1CCCN1C(=O)[C@@H](N)CCCNC(=N)N)C(=O)N1CCC[C@H]1C(=O)N[C@@H](Cc1ccc(Cl)cc1)C(=O)O [Compound in Ex. 3] (H-RPRLSARGPMP[Phe(4-Cl)]-OH; N-terminus and C-terminus assumed) | 36 | 320 | 910 | – | –
CC(C)C[C@H](NC(=O)[C@H](C)NC(=O)[C@@H]1CCCN1C(=O)[C@@H](N)CCCNC(=N)N)C(=O)N[C@@H](CO)C(=O)N[C@@H](Cc1c[nH]cn1)C(=O)N[C@@H](CCCCN)C(=O)NCC(=O)N1CCC[C@H]1C(=O)N[C@@H](CC1CCCCC1)C(=O)N1CCC[C@H]1C(=O)N[C@@H](Cc1ccc(Cl)cc1)C(=O)O [Compound in Ex. 58] (H-RPALSHKGP[Cha]P[Phe(4-Cl)]-OH; N-terminus and C-terminus assumed) | 150 | 410 | – | – | –
CSCC[C@H](NC(=O)[C@@H]1CCCN1C(=O)CNC(=O)[C@H](CCCNC(=N)N)NC(=O)[C@H](C)NC(=O)[C@H](CO)NC(=O)[C@H](CC(C)C)NC(=O)[C@H](CCCNC(=N)N)NC(=O)[C@@H]1CCCN1C(=O)[C@H](CCCNC(=N)N)NC(=O)[C@H](CCC(N)=O)NC(=O)[C@H](CCCNC(=N)N)NC(=O)[C@@H](N)CCCNC(=N)N)C(=O)N1CCC[C@H]1C(=O)N[C@@H](Cc1ccc(Cl)cc1)C(N)=O [Compound in Ex. 59] | 180 | 320 | – | – | –
CC(C)C[C@H](NC(=O)[C@H](CCCNC(=N)N)NC(=O)[C@@H]1CCCN1C(=O)[C@@H](N)CCCNC(=N)N)C(=O)N[C@@H](CO)C(=O)N[C@@H](C)C(=O)N[C@@H](CCCNC(=N)N)C(=O)NCC(=O)N1CCC[C@H]1C(=O)N[C@@H](CC1CCCCC1)C(=O)N[C@@H](Cc1ccc2ccc3cccc4ccc1c2c34)C(=O)O [Compound in Ex. 60] (H-RPRLSARGP[Cha][X1]-OH) | – | – | – | 800 | 1100
CC(C)C[C@H](NC(=O)[C@H](CCCNC(=N)N)NC(=O)[C@@H]1CCCN1C(=O)[C@@H](N)CCCNC(=N)N)C(=O)N[C@@H](CO)C(=O)N[C@@H](C)C(=O)N[C@@H](CCCNC(=N)N)C(=O)NCC(=O)N1CCC[C@H]1C(=O)N[C@@H](CC1CCCCC1)C(=O)N1CCC[C@H]1C(=O)N[C@@H](Cc1ccc2ccc3cccc4ccc1c2c34)C(=O)O [Compound in Ex. 61] (H-RPRLSARGP[Cha]P[X1]-OH; N-terminus and C-terminus assumed) | – | – | – | 560 | 2200
CC(C)C[C@H](NC(=O)[C@H](CCCNC(=N)N)NC(=O)[C@@H]1CCCN1C(=O)[C@H](CCCNC(=N)N)NC(=O)[C@H](CCC(N)=O)NC(=O)[C@H](CCCNC(=N)N)NC(=O)[C@@H](N)CCCNC(=N)N)C(=O)N[C@@H](CO)C(=O)N[C@@H](C)C(=O)N[C@@H](CCCNC(=N)N)C(=O)NCC(=O)NCC(=O)N[C@@H](CC1CCCCC1)C(=O)O [Compound in Ex. 62] (H-RRQRPRLSARGG[Cha]-OH; N-terminus and C-terminus assumed) | 140 | 230 | – | – | –
CSCC[C@H](NC(=O)[C@@H]1CCCN1C(=O)CNC(=O)[C@H](CCCNC(=N)N)NC(=O)[C@H](C)NC(=O)[C@H](CO)NC(=O)[C@H](CC(C)C)NC(=O)[C@H](CCCCN(C)C)NC(=O)[C@@H]1CCCN1C(=O)[C@@H](N)CCCNC(=N)N)C(=O)N1CCC[C@H]1C(=O)N[C@@H](Cc1ccccc1)C(=O)O [Compound in Ex. 63] (H-RP[Lys(Me2)]LSARGPMPF-OH; N-terminus and C-terminus assumed) | 74 | 330 | – | – | –
CC(C)C[C@H](NC(=O)[C@H](CCCNC(=N)N)NC(=O)[C@@H]1CCCN1C(=O)[C@@H](N)CCCNC(=N)N)C(=O)N[C@@H](CO)C(=O)N[C@@H](CN)C(=O)N[C@@H](CCCNC(=N)N)C(=O)NCC(=O)N1CCC[C@H]1C(=O)N[C@@H](CC1CCCCC1)C(=O)N1CCC[C@H]1C(=O)N[C@@H](Cc1ccc(Cl)cc1)C(=O)O [Compound in Ex. 65, Arg-Pro-Arg-Leu-Ser-Dap-Arg-Gly-Pro-Cha-Pro-Phe(Cl)] (H-RPRLS[Dap]RGP[Cha]P[Phe(4-Cl)]-OH) | 260 | 520 | – | – | –
CC(=O)NC[C@H](NC(=O)[C@H](CO)NC(=O)[C@H](CC(C)C)NC(=O)[C@H](CCCNC(=N)N)NC(=O)[C@@H]1CCCN1C(=O)[C@@H](N)CCCNC(=N)N)C(=O)N[C@@H](CCCNC(=N)N)C(=O)NCC(=O)N1CCC[C@H]1C(=O)N[C@@H](CC1CCCCC1)C(=O)N1CCC[C@H]1C(=O)N[C@@H](Cc1ccc(Cl)cc1)C(=O)O [Compound in Ex. 66, Arg-Pro-Arg-Leu-Ser-Dap(Ac)-Arg-Gly-Pro-Cha-Pro-Phe(Cl)] (H-RPRLS[Dap](Ac)RGP[Cha]P[Phe(4-Cl)]-OH) | 110 | 690 | – | – | –
CCCCCC(=O)NC[C@H](NC(=O)[C@H](CO)NC(=O)[C@H](CC(C)C)NC(=O)[C@H](CCCNC(=N)N)NC(=O)[C@@H]1CCCN1C(=O)[C@@H](N)CCCNC(=N)N)C(=O)N[C@@H](CCCNC(=N)N)C(=O)NCC(=O)N1CCC[C@H]1C(=O)N[C@@H](CC1CCCCC1)C(=O)N1CCC[C@H]1C(=O)N[C@@H](Cc1ccc(Cl)cc1)C(=O)O [Compound in Ex. 67, Arg-Pro-Arg-Leu-Ser-Dap(C6)-Arg-Gly-Pro-Cha-Pro-Phe(Cl)] (H-RPRLS[Dap](Hexanoyl)RGP[Cha]P[Phe(4-Cl)]-OH; N-terminus and C-terminus assumed) | 450 | 1100 | – | – | –
CC(C)C[C@H](NC(=O)[C@H](CCCNC(=N)N)NC(=O)[C@@H]1CCCN1C(=O)[C@@H](N)CCCNC(=N)N)C(=O)N[C@@H](CO)C(=O)N[C@@H](CNC(=O)CCCCC(=O)O)C(=O)N[C@@H](CCCNC(=N)N)C(=O)NCC(=O)N1CCC[C@H]1C(=O)N[C@@H](CC1CCCCC1)C(=O)N1CCC[C@H]1C(=O)N[C@@H](Cc1ccc(Cl)cc1)C(=O)O [Compound in Ex. 68, Arg-Pro-Arg-Leu-Ser-Dap(Adi)-Arg-Gly-Pro-Cha-Pro-Phe(Cl)] (H-RPRLS[Dap](Adipoyl)RGP[Cha]P[Phe(4-Cl)]-OH; N-terminus and C-terminus assumed) | 130 | 420 | – | – | –
RPRLFARGPMF [Compound in Ex. 47] | 1800 | 360 | – | – | –
RPRLFARGPMPF [Compound in Ex. 31] | 270 | 140 | – | – | –

From US20040116336A1, “Peptide derivatives” (priority 2002, published 2004)
